The record followed here is publication doi:10.1101/2021.12.13.472350v1, “An amphipathic and cationic antimicrobial peptide kills colistin resistant Gram-negative pathogens in vivo” (bioRxiv, 2021).

One test has as its system E. coli ATCC 25922. The experiment in a line: Time kill experiments. Format: cell-based. Particulars: 1xMIC, exponentially growing cells, 5×10^5-1×10^6 CFU/ml, MHB-II; plateau, regrowth evident after 3 hours.
In a further test the test system is E. coli ESBL20150072. Put plainly: In vivo sepsis/peritonitis mouse infection model. The note with it: NMRI mice infected IP; 10 mg/kg IP at 1 and 3 h; 5 hours post infection. On the procedure:
Outbred female NMRI mice (NMRI; weight 26–30 g; Taconic, Denmark) were used throughout the study, as previously described ([69], [70]). […] Colistin is recommended at a dose of 5-10 mg/kg, according to the European Medicines Agency (EMA) ([71]). The animals were kept in Macrolon type III cages in groups of six and allowed free access to feed and water. Experiments were initiated after an acclimatization period of 7 days. Inoculation (bacterial infection) was performed by intraperitoneal (IP) injection of 0.5 ml bacterial suspension containing 2×10^7 CFU/ml and 5% (wt/vol) mucin (Sigma-Aldrich). During experiments, groups of eight mice per cage constituting one experimental unit were randomly assigned to treatment (5 mg/kg ChIP and 10 mg/kg ChIP or colistin 10 mg/kg and 24 mg/kg) or no treatment (vehicle). Peptide and colistin was administered as a single bolus injection IP (volume injected 0.2 ml) at 1 hours and again 3. At various times post-infection, ∼200 µL blood from the jaw/cheek was collected in Eppendorf tubes with anti-coagulate (Sarstedt, Nümbrecht, Germany). Peritoneal lavage was performed by injecting 2.0 ml of sterile physiological saline IP. After 1 minute of abdominal massage, the peritoneum was opened and peritoneal lavage fluid (PLF) withdrawn. PLF was immediately placed in an insulated 4 °C cooling box for transportation and kept on ice at 4 °C. The mouse peritonitis model was repeated in duplicates for E. coli ATCC 25922 and A. baumannii ATCC 19606 nad in triplicate for E. coli ESBL20150072, while only a single experiment was carried out on A. baumannii CR17. Animals were sacrificed at various times prior to and following infection. Data from repeated experiments were pooled for analyses. Quantification of bacterial load was performed by spot plating of blood and peritoneal fluid samples from the mice. Dilution series were made in sterile 0.9% NaCl solution, from which 20 μl was spotted on solid lactose agar plates (Bromthymole Blue plates, SSI Diagnostica). Bacterial counts were recorded after overnight incubation at 37 °C in ambient air. The detection limit was 50 CFU/ml. The clinical condition of the mice was determined using a self-developed clinical score. For this score, mouse behavior and appearance were observed and evaluated for the parameters piloerection, attitude, locomotion, breathing and curiosity and awarded a score from 0 to 5 by a blinded observer. 0 = no clinical signs, 1 = slightly ruffled fur, 2 = ruffled fur and strenuous breathing, 3 = 2 plus lethargy, 4 = 3 plus hunched posture and decreased activity, and 5 = moribund. No significant difference in the clinical score between groups was observed 2 and 4 h post treatment. All mice were recorded for score 2.

The next test has as its system E. coli MG1655. Put plainly: Macromolecular incorporation assay. Format: cell-based. Particulars: 10xMIC, high cell density (OD600 = 0.1, approximately 1×10^8 CFU/ml), AB minimal medium. The protocol:
Bacteria were grown in cation adjusted Müller-Hinton broth (MHB-II; Sigma-Aldrich) for MIC or Luria-Bertani (LB) broth at 37°C, supplemented with relevant antibiotics when required. For macromolecular incorporation measurements cells were grown in AB minimal medium ([65]) supplemented with 10 μg/ml thiamine and 0.2% glucose without Cas amino acids. Except for glucosamine incorporation where 0.2% glycerol was used as carbon source. Growth rate of the mcr-1 carrying BW25113 strain was determined in MHB-II on exponentially growing cells by measuring OD600 over time.
Macromolecular synthesis was determined by incorporation of […], 3H-arginine or 3H-glucosamine into DNA, RNA, proteins and cell wall respectively, as described previously ([66]). Briefly, 500 µl samples of exponentially growing MG1655 cells were incubated with 0.375 µCi of the relevant precursor for 2 minutes (uridine), 4 minutes (thymidine and arginine), and 20 minutes (glucosamine). Reactions were stopped by adding 5 ml of ice-cold 5% TCA containing 0.1 M NaCl. Samples were filtered (ADVANTEC®, 25mm, lot no: 80302708) washed twice and dried overnight in scintillation vials (PV1AS, MERIDIAN, BIOTECHNOLOGIES Ltd) before counting on a HINDEX 300SL in 5 ml of scintillation fluid (Scintillation fluid, ULTIMA GOLD™, Perkin Elmer, Inc. LOT No.: 77-18151).

For test [1], the system named is E. coli ML-35p inner membrane. The experiment in a line: Permeabilization assay (ONPG / β-galactosidase). Format: cell-based. Particulars: ChIP 4, 12 and 20 µg/ml for 20, 40 or 60 minutes; chloramphenicol 200 µg/ml pretreated; level higher than toluene or colistin 2 µg/ml. On the procedure:
Exponentially growing cells of E. coli ML35 (LacI^- LacY^- LacZ^+) were treated with chloramphenicol (200 µg/ml) to stop protein synthesis. Chloramphenicol treated samples were incubated with ChIP (4, 12 and 20 µg/ml) and colistin (2 µg/ml) for 20, 40 or 60 minutes (12 samples total). 200 µL peptide treated cells were added to 1 ml Z-buffer (0.06M Na2HPO4, 0.04M NaH2PO4, 0.01M KCL, 0.001M MgSO4 and pH = 7) containing 1 mg/ml Ortho-Nitrophenyl-β-galactoside (ONPG). Samples were left at room temperature 15 minutes before stopping color development by addition of 0.5 ml Na2CO3 (1M). Toluene treated cells were included as a control for permeabilized cells. β-galactosidase activity was detected by OD420 measurements.

A further test relates to E. coli ATCC25922. The experiment in a line: Live/Dead staining and phase contrast microscopy. It is filed as cell-based. Particulars: 5xMIC, first 30 min of treatment, OD600 = 0.1. The protocol:
Exponentially growing E. coli ATCC25922 were treated for 30 min with either colistin (5xMIC) or ChIP (5xMIC) at OD600 = 0.1. An untreated culture was used as a control. 20 ml of treated or untreated culture was concentrated by centrifugation at 5,000 × g for 10 minutes, washed and re-suspended in 10 ml 0.9% NaCl. All samples were incubated at room temperature for 1 hour, mixing every 15 minutes, before washing twice with 10 ml 0.9% NaCl. After washing, the samples were re-suspended in 5 ml 0.9% NaCl, except for ChIP treated samples that were suspended in 1 ml 0.9% NaCl. Sample staining was performed according to the manufacturers instruction (LIVE/DEAD(tm) BacLight(tm) Bacterial Viability Kit, for microscopy & quantitative assays), and incubated for 15 minutes in the dark. 5 μl of the bacterial suspension was placed on an agar pad and analyzed by fluorescence microscopy using an AxioImager Z1 microscope (Carl Zeiss MicroImaging, Inc), with a × 100 objective and a Hamamatsu ORCA-ER C4742-80-12AG camera.

Take `CC[C@@H](C)[C@@H](NC(=O)[C@@H](CCCCN)NC(=O)[C@@H](CCCCN)NC(=O)[C@@H](Cc1ccccc1)NC(=O)[C@@H](CC(C)C)NC(=O)[C@@H](CCCCN)NC(=O)[C@H](N)CCCCN)C(=O)N[C@H](CC(C)C)C(=O)N[C@H](CCCNC(=N)N)C(=O)N[C@H](Cc1ccc(O)cc1)C(=O)N[C@H](CC(C)C)C(N)=O` [ChIP]: in the test with E. coli ATCC 25922, the “reduction in viable cells” value is reported as 3-4 log. In addition, in the test on E. coli ESBL20150072, the peritoneal titers was 1×10^4 CFU/ml and the “reduction in peritoneal titers compared to vehicle (1×10^8 CFU/ml)” value came out at 3 logs. In the test on E. coli MG1655, the “incorporation of radioactive labelled precursors into DNA, RNA, protein and peptidoglycan” value was “blocked incorporation”. For the same compound, in test [1], the “β-galactosidase activity (ONPG, OD420) of treated cells” value is given as “increased in a dose dependent manner”. Also, the “viability and lysis (SYTO9 / propidium iodide, phase contrast)” value in the test with E. coli ATCC25922 is “loss of viability, but without lysis”.
